Assay results: patent US12247004B2, “2-amino-N-(amino-oxo-aryl-lambda6-sulfanylidene)acetamide compounds and their therapeutic use” (Oxford Drug Design Limited, priority 2019, dated 2025)
Counter-ions that a name gives are not always drawn. Like-named read-outs stand apart in the source and are kept apart here.

Assays:
[1] = molecular target: Leucyl-tRNA synthetase (LeuRS) (Escherichia coli (strain K12), UniProt P07813); assay: Leucyl-tRNA synthetase enzyme inhibition (AMP-Glo; single point % inhibition at 100 μM and IC50); assay type: biochemical
Excerpt: Study 1—Enzyme Inhibition
The aminoacylation reaction catalyzed by aminoacyl-tRNA synthetases (aaRS) takes place in two steps. In the first step, aaRS activates its cognate amino acid with ATP; and in the second step the activated amino acid is loaded to its corresponding tRNA. This reaction can be summarized as follows: aaRS+aa+ATP=aaRS-aa-AMP+PPi aaRS-aa-AMP+tRNA=aa-tRNA+AMP+aaRS
wherein: aaRS, aminoacyl-tRNA synthetase; aa, amino acid; aaRS-aa-AMP, enzyme-bound to aminoacyl-adenylate; AMP, adenosine monophosphate; aa-tRNA, aminoacyl-tRNA, PPi, inorganic pyrophosphate.
a. Single Point Percentage Inhibition
The activity of the pathogenic aaRSs was monitored by measuring AMP production using the commercial kit AMP-Glo (Promega, Madison, USA).
Ligand stock solutions were prepared in 100% DMSO at 10 mM concentration. An assay buffer consisting of 100 mM Tris HCl pH 7.6, 40 mM MgCl, 20 mM KCl and 150 mM NaCl was prepared in dH2O.
Using the same enzymatic assay in a 384-well plate format, ten point concentration response curves were generated for each compound using a top concentration of 10 μM. The known inhibitor LeuAMS was used as a positive control for the LeuRS assay. 100% DMSO was used as a negative control. The IC50 was calculated based on non-linear regression analysis.

[2] = Human cell viability / cytotoxicity (CellTiter-Glo, 24 hours); assay type: cell-based; details: human, HepG2 cells (ATCC HB-8065); HepG2 ATCC HB-8065, 24 hours; read-out: Cytotoxicity in HepG2 ATCC HB-8065 Cell Line, IC50
Experimental: Study 3—Human Cell Viability
Compounds were assessed for potential non-specific cytotoxic effects against a human hepatic cell line (HepG2 ATCC HB-8065). 96-well plates were seeded with HepG2 cells in concentration of 15,000 cells per well in 100 μL of MEM growth media completed with 1% NEAA and 1% sodium pyruvate. Border wells were filled with 100 μL of sterile PBS. Two days upon cells incubation, the compounds were added. Compound dilutions were prepared in 96-well V-bottom plate in pure DMSO. Growth media from 5 plates were aspirated and replaced with 98.7 μL of fresh growth media. 1.28 μL of compounds prepared in V-bottom plates were transferred with multichannel pipette into test plates (78.1× dilution). Final DMSO concentration was 1.28% per well. In control wells, 1.28 μL of DMSO was added in 98.7 μL of media. Compounds were tested in duplicates. Cells were incubated with compounds for 24 hours when cell viability was assessed by measuring ATP levels. ATP levels were measured by adding 50 μL of CellTiter-Glo reagent to each well and after 5 minutes of incubation luminescence was measured with SpectraMax i3. The potential effect of tested compounds on cell viability was determined by comparing the signal obtained in presence of different concentrations of the compounds with those obtained in the presence of DMSO only. The potential effects were then calculated and presented as IC50 values (μg/mL).

[3] = tested on: bacteria (ATCC reference strains); assay: Antibacterial activity, MIC by broth micro-dilution (CLSI)
[4] = E. coli LeuRS, read-out: Enzyme Inhibition - IC50, E. coli LeuRS

Sequence of Leucyl-tRNA synthetase (LeuRS) (P07813 whole entry, looked up): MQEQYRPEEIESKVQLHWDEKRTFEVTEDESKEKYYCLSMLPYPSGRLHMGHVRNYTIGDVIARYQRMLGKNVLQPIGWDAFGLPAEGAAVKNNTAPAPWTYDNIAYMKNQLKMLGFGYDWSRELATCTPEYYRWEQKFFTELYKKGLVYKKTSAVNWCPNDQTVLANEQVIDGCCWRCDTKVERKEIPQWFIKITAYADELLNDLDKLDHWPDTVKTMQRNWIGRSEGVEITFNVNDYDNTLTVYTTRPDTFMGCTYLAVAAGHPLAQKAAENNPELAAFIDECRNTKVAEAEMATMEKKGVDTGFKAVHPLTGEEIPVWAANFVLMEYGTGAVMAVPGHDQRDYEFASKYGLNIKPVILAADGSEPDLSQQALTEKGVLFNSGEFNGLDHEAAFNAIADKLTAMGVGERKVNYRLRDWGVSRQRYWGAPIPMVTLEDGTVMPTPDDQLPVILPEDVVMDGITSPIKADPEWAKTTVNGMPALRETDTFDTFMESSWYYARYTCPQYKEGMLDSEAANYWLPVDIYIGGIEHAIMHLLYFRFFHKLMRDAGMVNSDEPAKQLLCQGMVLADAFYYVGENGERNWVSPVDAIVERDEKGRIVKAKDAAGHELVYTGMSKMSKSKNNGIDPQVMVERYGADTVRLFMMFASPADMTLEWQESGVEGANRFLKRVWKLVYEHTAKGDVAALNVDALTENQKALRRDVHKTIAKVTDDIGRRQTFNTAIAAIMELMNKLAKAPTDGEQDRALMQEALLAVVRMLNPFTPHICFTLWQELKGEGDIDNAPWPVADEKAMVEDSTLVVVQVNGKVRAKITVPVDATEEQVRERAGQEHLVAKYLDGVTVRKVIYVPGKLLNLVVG

`CC(C)C[C@H](N)C(=O)N=S(N)(=O)c1csc(Cl)c1` (mixture of isomers) [ANASIA-099] gave an IC50 [1] of 72.2 nM and an IC50 at 24 h [2] of over 64 µg/mL.
For `CC(C)C[C@H](N)C(=O)N=[S@](N)(=O)c1cccs1.Cl` (single isomer, unassigned) [ANASIA-007-1, (S)-2-amino-N—((S)-amino(oxo)(thiophen-2-yl)-λ6-sulfanylidene)-4-methylpentanamide hydrochloride], the IC50 [1, 4] was 63.3 nM and the IC50 at 24 h [2] was over 64 µg/mL.
Work on `CC(C)C[C@H](N)C(=O)N=[S@@](N)(=O)c1cccc(Cl)c1F` [ANASIA-001-2] yielded an IC50 [1, 4] of 3530 nM and an IC50 at 24 h [2] of over 64 µg/mL.
In the case of `CC(C)C[C@H](N)C(=O)N=[S@@](N)(=O)c1ccccc1` [ANASIA-003-2, (S)-2-amino-N—((R)-amino(oxo)(phenyl)-λ6-sulfanylidene)-4-methylpentanamide hydrochloride], the IC50 [1, 4] is reported as 2260 nM and the IC50 at 24 h [2] is reported as over 64 µg/mL.
`Cc1cccc([S@@](N)(=O)=NC(=O)[C@@H](N)CC(C)C)c1` [ANASIA-005-1] showed an IC50 [1] of 3030 nM and an IC50 at 24 h [2] of over 64 µg/mL.
`CC(C)C[C@H](N)C(=O)N=[S@@](N)(=O)c1ccsc1` [ANASIA-008-2] showed an IC50 [1, 4] of 2000 nM and an IC50 at 24 h [2] of over 64 µg/mL.
For `CC(C)C[C@H](N)C(=O)N=[S@](N)(=O)c1ccc(Cl)s1` [ANASIA-009-1], the IC50 [1] was 1830 nM and the IC50 at 24 h [2] was over 64 µg/mL.
Work on `CC(C)C[C@H](N)C(=O)N=[S@](N)(=O)c1cccc(F)c1` [ANASIA-011-1] yielded an IC50 at 24 h [2] of over 64 µg/mL.
`CC(C)C[C@H](N)C(=O)N=[S@@](N)(=O)c1cccc(F)c1` [ANASIA-011-2] gave an IC50 at 24 h [2] of over 64 µg/mL.
`CC(C)C[C@H](N)C(=O)N=S(N)(=O)c1cccc(F)c1` (stereo partly drawn) [ANASIA-011] gave an IC50 at 24 h [2] of over 64 µg/mL.
Work on `CC(C)C[C@H](N)C(=O)N=[S@@](N)(=O)c1sccc1Cl` [ANASIA-012-2] yielded an IC50 [1, 4] of 3230 nM and an IC50 at 24 h [2] of over 64 µg/mL.
`CC(C)C[C@H](N)C(=O)N=S(N)(=O)c1ccc2ccccc2c1` (stereo partly drawn) [ANASIA-013] showed an IC50 [1, 4] of 3570 nM and an IC50 at 24 h [2] of over 64 µg/mL.
`Cc1ccc([S@](N)(=O)=NC(=O)[C@@H](N)CC(C)C)s1` [ANASIA-014-2] showed an IC50 [1, 4] of 3980 nM and an IC50 at 24 h [2] of over 64 µg/mL.
For `Cc1ccsc1[S@](N)(=O)=NC(=O)[C@@H](N)CC(C)C` [ANASIA-015-2], the IC50 [1, 4] was 1860 nM and the IC50 at 24 h [2] was over 64 µg/mL.
Work on `CC(C)C[C@H](N)C(=O)N=[S@](N)(=O)c1cccc2ccccc12` [ANASIA-016-1] yielded an IC50 [1] of 2200 nM and an IC50 at 24 h [2] of over 64 µg/mL.
For `CC(C)C[C@H](N)C(=O)N=[S@@](N)(=O)c1cccc2ccccc12` [ANASIA-016-2], the IC50 [1, 4] was 5560 nM and the IC50 at 24 h [2] was over 64 µg/mL.
Work on `CC(C)C[C@H](N)C(=O)N=S(N)(=O)c1cccc2ccccc12` (stereo partly drawn) [ANASIA-016] yielded an IC50 [1, 4] of 3040 nM and an IC50 at 24 h [2] of over 64 µg/mL.
Work on `CC(C)C[C@H](N)C(=O)N=[S@](N)(=O)c1ccc(C(F)F)s1.Cl` [ANASIA-017-1] yielded an IC50 at 24 h [2] of over 64 µg/mL, an MIC ([3]; Acinetobacter baumannii, read-out: Antibacterial Activity (MIC), E = A. baumannii B1931) of over 64 µg/mL and an MIC ([3]; Escherichia coli, ATCC25922, read-out: Antibacterial Activity (MIC), A = E. coli ATCC 25922) of 4 µg/mL. The MIC ([3]; Escherichia coli, BAA2469, read-out: Antibacterial Activity (MIC), G = E. coli BAA-2469) was 22.6 µg/mL, the MIC ([3]; Haemophilus influenzae, ATCC49247, read-out: Antibacterial Activity (MIC), F = H. influenzae ATCC 49247) was 4 µg/mL and the MIC ([3]; Klebsiella pneumoniae, ATCC700603, read-out: Antibacterial Activity (MIC), C = K. pneumoniae ATCC 700603) was over 256 µg/mL. For the same compound, the MIC ([3]; Pseudomonas aeruginosa, ATCC27853, read-out: Antibacterial Activity (MIC), D = P. aeruginosa ATCC 27853) was over 64 µg/mL.
With `CC(C)C[C@H](N)C(=O)N=[S@](N)(=O)c1cccc(-c2ccccc2)c1` [ANASIA-018-1] the IC50 [1] was 223 nM and the IC50 at 24 h [2] was over 64 µg/mL.
`CC(C)C[C@H](N)C(=O)N=[S@@](N)(=O)c1cccc(-c2ccccc2)c1` [ANASIA-018-2] gave an IC50 [1, 4] of 2970 nM and an IC50 at 24 h [2] of over 64 µg/mL.
With `CC(C)C[C@H](N)C(=O)N=S(N)(=O)c1ccc(Cl)c2ccccc12` (stereo partly drawn) [ANASIA-019] the IC50 [1, 4] was 2260 nM and the IC50 at 24 h [2] was over 64 µg/mL.
With `CC(C)C[C@H](N)C(=O)N=[S@](N)(=O)c1ccc(F)c2ccccc12` [ANASIA-020-1] the IC50 [1] was 2050 nM and the IC50 at 24 h [2] was over 64 µg/mL.
Compound `CC(C)C[C@H](N)C(=O)N=[S@@](N)(=O)c1ccc(F)c2ccccc12` [ANASIA-020-2] has an IC50 [1, 4] of 4090 nM and an IC50 at 24 h [2] of over 64 µg/mL.
